In patent US20210238187A1, “AZIRIDINE CONTAINING EPOTHILONE ANALOGS, METHODS OF SYNTHESIS, METHODS OF TREATMENT, AND DRUG CONJUGATES” (WILLIAM MARSH RICE UNIVERSITY, priority 2017, published 2021):
Read-outs that look alike come from different tables or passages of the source. Non-standard residues stand in square brackets, D forms with d. Residues, ends and D or L forms follow the SMILES beside them. *: point of attachment. Dolaproine = CO[C@@H]([C@@H]1CCCN1)[C@@H](C)C(=O)O; Dil = CC[C@H](C)[C@H](NC)[C@@H](CC(=O)O)OC; X1 = C[C@@H](N*)[C@@H](O)c1ccccc1; NMeV = CN[C@H](C(=O)O)C(C)C

Assays:
[1] = test system: NCI/ADR-RES; test: Cytotoxicity (GI50) assay, NCI/ADR-RES; assay type: cell-based, human; conditions: Homo sapiens, NCI/ADR-RES, read-out: Cancer cell lines GI50, NCI/ADR-RES
[2] = test system: MCF-7; test: Cytotoxicity (GI50) assay, MCF-7; assay type: cell-based, human
[3] = test system: Tubulin; test: Tubulin assembly induction; assay type: biochemical; conditions: […]
[4] = test system: OVCAR-8; test: Cytotoxicity (GI50) assay, OVCAR-8; assay type: cell-based, human
[5] = test system: SNB-75; test: Cytotoxicity (GI50) assay, SNB-75; assay type: cell-based, human
[6] = test system: MES SA, MES SA DX, and HEK 293T; test: Cytotoxicity (IC50), summary over MES SA, MES SA DX and HEK 293T; assay type: cell-based, human; conditions: read-out: IC50 against all three cell lines (summary of Table 4)
[7] = test system: MDA-MB-435; test: Cytotoxicity (GI50) assay, MDA-MB-435; assay type: cell-based, human
[8] = test system: MES SA DX; test: Cytotoxicity assay (CellTiter-Glo), MES SA DX; assay type: cell-based, human; conditions: read-out: Cancer cell lines IC50, MES SA DX
[9] = test system: MES SA; test: Cytotoxicity assay (CellTiter-Glo), MES SA; assay type: cell-based, human; conditions: read-out: Cancer cell lines IC50, MES SA
[10] = test system: HEK 293T; test: Cytotoxicity assay (CellTiter-Glo), HEK 293T; assay type: cell-based; conditions: Homo sapiens, 72 h, read-out: Cancer cell lines IC50, HEK 293T
[11] = human uterine sarcoma cell line, 72 hours, CellTiter-Glo
[12] = Homo sapiens, MCF7, read-out: Cancer cell lines GI50, MCF-7
[13] = Homo sapiens, OVCAR-8, read-out: Cancer cell lines GI50, OVCAR-8
[14] = Homo sapiens, SNB-75, read-out: Cancer cell lines GI50, SNB-75
[15] = Homo sapiens, MDA-MB-435, read-out: Cancer cell lines GI50, MDA-MB-435

Molecule	GI50 ([1]; highly drug resistant human ovarian cancer cell line) [nM]	GI50 ([2]; MCF7, human breast cancer cell line, concentration required to decrease cell growth by 50%, read-out: Cancer cell lines GI50, MCF-7) [nM]	EC50 [3] [nM]	GI50 ([4]; OVCAR-8, human ovarian cancer cell line, read-out: Cancer cell lines GI50, OVCAR-8) [nM]	GI50 ([5]; SNB-75, human glioblastoma cell line, read-out: Cancer cell lines GI50, SNB-75) [nM]	IC50 ([6]; Homo sapiens) [nM]	GI50 ([7]; MDA-MB-435, human melanoma cell line, read-out: Cancer cell lines GI50, MDA-MB-435) [nM]	IC50 ([8]; Homo sapiens, MES SA cell line with marked multidrug resistance, 72 hours, CellTiter-Glo) [nM]	IC50 ([9]; MES-SA, human uterine sarcoma cell line, 72 hours, CellTiter-Glo) [nM]	IC50 [6] [nM]	IC50 [8] [nM]	IC50 [9, 11] [nM]	GI50 [1] [nM]	GI50 [2, 12] [nM]	GI50 [4, 13] [nM]	IC50 [10] [nM]	GI50 [5, 14] [nM]	GI50 [7, 15] [nM]	IC50 ([8]; Homo sapiens, MES-SA, 72 h) [nM]	IC50 ([9]; Homo sapiens, MES-SA, 72 h) [nM]
CC(=O)O[C@H]1C(=O)[C@@]2(C)[C@H]([C@H](OC(=O)c3ccccc3)[C@]3(O)C[C@H](OC(=O)[C@H](O)[C@@H](NC(=O)c4ccccc4)c4ccccc4)C(C)=C1C3(C)C)[C@]1(OC(C)=O)CO[C@@H]1C[C@@H]2O [paclitaxel, reference compound]	4800	7.8	15000	26	15	≥ 1.76	5	> 400	2.47											
N-acetyl calicheamicin γ1^1 [NAC, reference compound]										≥ 0.166	15.3	0.364								
CC[C@H](C)[C@@H]([C@@H](CC(=O)N1CCC[C@H]1[C@H](OC)[C@@H](C)C(=O)N[C@H](C)[C@@H](O)c1ccccc1)OC)N(C)C(=O)[C@@H](NC(=O)[C@@H](NC)C(C)C)C(C)C [MMAE, monomethyl auristatin E, reference compound] (H-[NMeV]V[Dil][Dolaproine]-X1)										≥ 0.068	88.2	0.096								
C/C(=C\c1cc(C)no1)[C@@H]1C[C@@H]2N(CCO)[C@]2(C)CCC[C@H](C)[C@H](O)[C@@H](C)C(=O)C(C)(C)[C@@H](O)CC(=O)O1 (stereo partly drawn) [compound 29, (1S,3S,7S,10R,11S,12S,16R)-7,11-Dihydroxy-17-(2-hydroxyethyl)-8,8,10,12,16-pentamethyl-3-[(1E)-1-(3-methyl-1,2-oxazol-5-yl)prop-1-en-2-yl]-4-oxa-17-azabicyclo[14.1.0]heptadecane-5,9-dione]			45000										390	9.5	27	1.67	34	17	> 70	6.54
C/C(=C\c1cnsn1)[C@@H]1C[C@@H]2N(CCO)[C@]2(C)CCC[C@H](C)[C@H](O)[C@@H](C)C(=O)C(C)(C)[C@@H](O)CC(=O)O1 (stereo partly drawn) [compound 28, (1S,3S,7S,10R,11S,12S,16R)-7,11-Dihydroxy-17-(2-hydroxyethyl)-8,8,10,12,16-pentamethyl-3-[(1E)-1-(1,2,5-thiadiazol-3-yl)prop-1-en-2-yl]-4-oxa-17-azabicyclo[14.1.0]heptadecane-5,9-dione]			39000										680	4.5	9	1.93	8	3	264	4.58
CC(=O)OCCN1[C@H]2C[C@@H](/C(C)=C/c3ccn(Cn4cccn4)n3)OC(=O)C[C@H](O)C(C)(C)C(=O)[C@H](C)[C@@H](O)[C@@H](C)CCC[C@]21C (stereo partly drawn) [compound 26, 2-[(1S,3S,7S,10R,11S,12S,16R)-7,11-Dihydroxy-8,8,10,12,16-pentamethyl-5,9-dioxo-3-{(1E)-1-[1-(1H-pyrazol-1-ylmethyl)-1H-pyrazol-3-yl]prop-1-en-2-yl}-4-oxa-17-azabicyclo[14.1.0]heptadec-17-yl]ethyl acetate]			40000										2700	38	38	1.72	50	5.5	> 400	5.9
CSc1nc(/C=C(\C)[C@@H]2C[C@@H]3N(CCS)[C@]3(C)CCC[C@H](C)[C@H](O)[C@@H](C)C(=O)C(C)(C)[C@@H](O)CC(=O)O2)cs1 (stereo partly drawn) [compound 35, (1S,3S,7S,10R,11S,12S,16R)-7,11-Dihydroxy-8,8,10,12,16-pentamethyl-3-{(1E)-1-[2-(methyl-sulfanyl)-1,3-thiazol-4-yl]prop-1-en-2-yl}-17-(2-sulfanylethyl)-4-oxa-17-azabicyclo[14.1.0]-heptadecane-5,9-dione]			> 60000										30	39	19	0.34	32	5.5	17	1.48
C/C(=C\c1coc(C)n1)[C@@H]1C[C@@H]2N(CCO)[C@]2(C)CCC[C@H](C)[C@H](O)[C@@H](C)C(=O)C(C)(C)[C@@H](O)CC(=O)O1 (stereo partly drawn) [compound 16, (1S,3S,7S,10R,11S,12S,16R)-7,11-Dihydroxy-17-(2-hydroxyethyl)-8,8,10,12,16-pentamethyl-3-[(1E)-1-(2-methyl-1,3-oxazol-4-yl)prop-1-en-2-yl]-4-oxa-17-azabicyclo[14.1.0]heptadecane-5,9-dione]			38000										190	17	39	0.95	19	11	79.4	2.71
C/C(=C\c1ccn(Cn2cccn2)n1)[C@@H]1C[C@@H]2N[C@]2(C)CCC[C@H](C)[C@H](O)[C@@H](C)C(=O)C(C)(C)[C@@H](O)CC(=O)O1 [compound 33, (1S,3S,7S,10R,11S,12S,16R)-7,11-Dihydroxy-8,8,10,12,16-pentamethyl-3-{(1E)-1-[1-(1H-pyrazol-1-ylmethyl)-1H-pyrazol-3-yl]prop-1-en-2-yl}-4-oxa-17-azabicyclo[14.1.0]heptadecane-5,9-dione]			> 60000										> 5000	140	1100	175	450	160	> 2500	107
C/C(=C\c1cc(-c2ccc(F)cc2)on1)[C@@H]1C[C@@H]2N(CCO)[C@]2(C)CCC[C@H](C)[C@H](O)[C@@H](C)C(=O)C(C)(C)[C@@H](O)CC(=O)O1 (stereo partly drawn) [compound 31, (1S,3S,7S,10R,11S,12S,16R)-3-{(1E)-1-[5-(4-Fluorophenyl)-1,2-oxazol-3-yl]prop-1-en-2-yl}-7,11-dihydroxy-17-(2-hydroxyethyl)-8,8,10,12,16-pentamethyl-4-oxa-17-azabicyclo[14.1.0]heptadecane-5,9-dione]			19000										50	13	70	0.32	65	11	17.1	1.41
C/C(=C\c1ccn(Cn2cccn2)n1)[C@@H]1C[C@@H]2N(CCO)[C@]2(C)CCC[C@H](C)[C@H](O)[C@@H](C)C(=O)C(C)(C)[C@@H](O)CC(=O)O1 (stereo partly drawn) [compound 25, (1S,3S,7S,10R,11S,12S,16R)-7,11-Dihydroxy-17-(2-hydroxyethyl)-8,8,10,12,16-pentamethyl-3-{(1E)-1-[1-(1H-pyrazol-1-ylmethyl)-1H-pyrazol-3-yl]prop-1-en-2-yl}-4-oxa-17-azabicyclo-[14.1.0]heptadecane-5,9-dione]			> 60000										> 5000	32	130	27.7	24	19	> 2500	10.3
C/C(=C\c1csc(CCO)n1)[C@@H]1C[C@@H]2N(CCO)[C@]2(C)CCC[C@H](C)[C@H](O)[C@@H](C)C(=O)C(C)(C)[C@@H](O)CC(=O)O1 (stereo partly drawn) [compound 19, (1S,3S,7S,10R,11S,12S,16R)-7,11-Dihydroxy-17-(2-hydroxyethyl)-3-{(1E)-1-[2-(2-hydroxyethyl)-1,3-thiazol-4-yl]prop-1-en-2-yl}-8,8,10,12,16-pentamethyl-4-oxa-17-azabicyclo-[14.1.0]heptadecane-5,9-dione]			> 60000										4800	40	38	3.39	36	12	> 1000	4.98
CSc1cc(/C=C(\C)[C@@H]2C[C@@H]3N[C@]3(C)CCC[C@H](C)[C@H](O)[C@@H](C)C(=O)C(C)(C)[C@@H](O)CC(=O)O2)nn1C [compound 40, (1S,3S,7S,10R,11S,12S,16R)-7,11-Dihydroxy-8,8,10,12,16-pentamethyl-3-{(1E)-1-[1-methyl-5-(methylsulfanyl)-1H-pyrazol-3-yl]prop-1-en-2-yl}-4-oxa-17-azabicyclo[14.1.0]heptadecane-5,9-dione]			19000										140	3.5	100	0.59	14	3.5	41.6	0.36
